# Test results reported in the supplement of paper PMC10307832.
# How the values were obtained:
# Experiment in all cases: relative viability (nuclei count vs DMSO), 5 days (fraction); higher = more cells survive
# NCI-H3122 = tested on: NCI-H3122
# Procedure, shortened: (§1)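 Medians of duplicate plates are given as relative viability. That measure is the nuclei count in treated wells divided by the count in vehicle wells. Counts were taken on 4× images of lung cancer cell lines in 1536-well plates, 5 days after pin-tool dosing the day after seeding with one drug alone or a fixed anchor-drug dose plus five library-drug doses (not always all listed) in √10 steps.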
# H3255 = tested on: H3255
# Procedure, shortened: as §1
# LK-2 = tested on: LK-2
# Procedure, shortened: as §1
# EKVX = tested on: EKVX
# Procedure, shortened: as §1
# LXF-289 = tested on: LXF-289
# Procedure, shortened: as §1
# UMC-11 = tested on: UMC-11
# Procedure, shortened: as §1
# NCI-H1993 = tested on: NCI-H1993
# Procedure, shortened: as §1
# ChaGo-K-1 = tested on: ChaGo-K-1
# Procedure, shortened: as §1
# LCLC-97TM1 = tested on: LCLC-97TM1
# Procedure, shortened: as §1
# HCC-827 = tested on: HCC-827
# Procedure, shortened: as §1
# NCI-H441 = tested on: NCI-H441
# Procedure, shortened: as §1
# NCI-H2170 = tested on: NCI-H2170
# Procedure, shortened: as §1
# NCI-H2228 = tested on: NCI-H2228
# Procedure, shortened: as §1
# PC-3 [JPC-3] = tested on: PC-3 [JPC-3]
# Procedure, shortened: as §1
# NCI-H1650 = tested on: NCI-H1650
# Procedure, shortened: as §1
# SW 1573 = tested on: SW 1573
# Procedure, shortened: as §1
# NCI-H2405 = tested on: NCI-H2405
# Procedure, shortened: as §1
# NCI-H522 = tested on: NCI-H522
# Procedure, shortened: as §1
# SK-LU-1 = tested on: SK-LU-1
# Procedure, shortened: as §1
# HOP-62 = tested on: HOP-62
# Procedure, shortened: as §1
# NCI-H1355 = tested on: NCI-H1355
# Procedure, shortened: as §1
# LU99A = tested on: LU99A
# Procedure, shortened: as §1
# EPLC-272H = tested on: EPLC-272H
# Procedure, shortened: as §1
smiles,measurement,setting,value
CN1CCN(CCOc2cc(OC3CCOCC3)c3c(Nc4c(Cl)ccc5c4OCO5)ncnc3c2)CC1 [Saracatinib] + CC(=O)c1c(C)c2cnc(Nc3ccc(N4CCNCC4)cn3)nc2n(C2CCCC2)c1=O [Palbociclib] (partner 0.5 µM),relative viability,NCI-H3122; first compound 0.02 µM,0.194
same,relative viability,NCI-H3122; first compound 0.2 µM,0.174
same,relative viability,NCI-H3122; first compound 0.6325 µM,0.199
same,relative viability,NCI-H3122; first compound 2 µM,0.185
same,relative viability,H3255; first compound 0.02 µM,0.329
same,relative viability,H3255; first compound 0.2 µM,0.31
same,relative viability,H3255; first compound 0.6325 µM,0.336
same,relative viability,H3255; first compound 2 µM,0.297
same,relative viability,LK-2; first compound 0.02 µM,0.496
same,relative viability,LK-2; first compound 0.2 µM,0.405
same,relative viability,LK-2; first compound 0.6325 µM,0.528
same,relative viability,LK-2; first compound 2 µM,0.313
same,relative viability,EKVX; first compound 0.02 µM,0.38
same,relative viability,EKVX; first compound 0.6325 µM,0.306
same,relative viability,EKVX; first compound 2 µM,0.146
same,relative viability,LXF-289; first compound 0.02 µM,0.621
same,relative viability,LXF-289; first compound 0.2 µM,0.582
same,relative viability,LXF-289; first compound 0.6325 µM,0.601
same,relative viability,LXF-289; first compound 2 µM,0.571
same,relative viability,UMC-11; first compound 0.02 µM,0.339
same,relative viability,UMC-11; first compound 0.2 µM,0.374
same,relative viability,UMC-11; first compound 0.6325 µM,0.38
same,relative viability,UMC-11; first compound 2 µM,0.309
same,relative viability,NCI-H1993; first compound 0.02 µM,0.65
same,relative viability,NCI-H1993; first compound 0.2 µM,0.584
same,relative viability,NCI-H1993; first compound 0.6325 µM,0.701
same,relative viability,NCI-H1993; first compound 2 µM,0.523
same,relative viability,ChaGo-K-1; first compound 0.02 µM,0.896
same,relative viability,ChaGo-K-1; first compound 0.2 µM,0.533
same,relative viability,ChaGo-K-1; first compound 0.6325 µM,0.92
same,relative viability,ChaGo-K-1; first compound 2 µM,0.865
same,relative viability,LCLC-97TM1; first compound 0.02 µM,0.21
same,relative viability,LCLC-97TM1; first compound 0.2 µM,0.185
same,relative viability,LCLC-97TM1; first compound 0.6325 µM,0.281
same,relative viability,LCLC-97TM1; first compound 2 µM,0.175
same,relative viability,HCC-827; first compound 0.02 µM,0.507
same,relative viability,HCC-827; first compound 0.2 µM,0.314
same,relative viability,HCC-827; first compound 0.6325 µM,0.185
same,relative viability,HCC-827; first compound 2 µM,0.167
same,relative viability,NCI-H441; first compound 0.02 µM,0.243
same,relative viability,NCI-H441; first compound 0.2 µM,0.196
same,relative viability,NCI-H441; first compound 0.6325 µM,0.199
same,relative viability,NCI-H441; first compound 2 µM,0.182
same,relative viability,NCI-H2170; first compound 0.02 µM,0.39
same,relative viability,NCI-H2170; first compound 0.2 µM,0.39
same,relative viability,NCI-H2170; first compound 0.6325 µM,0.441
same,relative viability,NCI-H2170; first compound 2 µM,0.354
same,relative viability,NCI-H2228; first compound 0.02 µM,0.955
same,relative viability,NCI-H2228; first compound 0.2 µM,0.649
same,relative viability,NCI-H2228; first compound 0.6325 µM,0.805
same,relative viability,NCI-H2228; first compound 2 µM,0.557
same,relative viability,PC-3 [JPC-3]; first compound 0.02 µM,0.568
same,relative viability,PC-3 [JPC-3]; first compound 0.2 µM,0.507
same,relative viability,PC-3 [JPC-3]; first compound 0.6325 µM,0.532
same,relative viability,PC-3 [JPC-3]; first compound 2 µM,0.561
same,relative viability,NCI-H1650; first compound 0.02 µM,0.334
same,relative viability,NCI-H1650; first compound 0.2 µM,0.28
same,relative viability,NCI-H1650; first compound 0.6325 µM,0.267
same,relative viability,NCI-H1650; first compound 2 µM,0.159
same,relative viability,SW 1573; first compound 0.02 µM,0.416
same,relative viability,SW 1573; first compound 0.2 µM,0.399
same,relative viability,SW 1573; first compound 0.6325 µM,0.382
same,relative viability,SW 1573; first compound 2 µM,0.28
same,relative viability,NCI-H2405; first compound 0.02 µM,0.567
same,relative viability,NCI-H2405; first compound 0.2 µM,0.45
same,relative viability,NCI-H2405; first compound 0.6325 µM,0.44
same,relative viability,NCI-H2405; first compound 2 µM,0.358
same,relative viability,NCI-H522; first compound 0.02 µM,0.914
same,relative viability,NCI-H522; first compound 0.2 µM,0.802
same,relative viability,NCI-H522; first compound 0.6325 µM,0.911
same,relative viability,NCI-H522; first compound 2 µM,0.756
same,relative viability,SK-LU-1; first compound 0.02 µM,0.517
same,relative viability,SK-LU-1; first compound 0.2 µM,0.297
same,relative viability,SK-LU-1; first compound 0.6325 µM,0.328
same,relative viability,SK-LU-1; first compound 2 µM,0.254
same,relative viability,HOP-62; first compound 0.02 µM,0.452
same,relative viability,HOP-62; first compound 0.2 µM,0.396
same,relative viability,HOP-62; first compound 0.6325 µM,0.459
same,relative viability,HOP-62; first compound 2 µM,0.477
same,relative viability,NCI-H1355; first compound 0.02 µM,0.401
same,relative viability,NCI-H1355; first compound 0.2 µM,0.432
same,relative viability,NCI-H1355; first compound 0.6325 µM,0.416
same,relative viability,NCI-H1355; first compound 2 µM,0.371
same,relative viability,LU99A; first compound 0.02 µM,0.413
same,relative viability,LU99A; first compound 0.2 µM,0.336
same,relative viability,LU99A; first compound 0.6325 µM,0.349
same,relative viability,LU99A; first compound 2 µM,0.31
same,relative viability,EPLC-272H; first compound 0.02 µM,0.342
same,relative viability,EPLC-272H; first compound 0.2 µM,0.287
same,relative viability,EPLC-272H; first compound 0.6325 µM,0.413
same,relative viability,EPLC-272H; first compound 2 µM,0.305
